Results on 18 compounds are retold here after PubChem BioAssay AID743457 (The Scripps Research Institute Molecular Screening Center, 2014).

The source made the active and inactive calls.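 Rule for the calls: active = IC50 at or below a set limit; inactive = IC50 above that limit.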 Where only a bound is given, the exact number is not on record here.

Sequence of Group 3 secretory phospholipase A2 (Homo sapiens) (Q9NZ20 whole entry, looked up): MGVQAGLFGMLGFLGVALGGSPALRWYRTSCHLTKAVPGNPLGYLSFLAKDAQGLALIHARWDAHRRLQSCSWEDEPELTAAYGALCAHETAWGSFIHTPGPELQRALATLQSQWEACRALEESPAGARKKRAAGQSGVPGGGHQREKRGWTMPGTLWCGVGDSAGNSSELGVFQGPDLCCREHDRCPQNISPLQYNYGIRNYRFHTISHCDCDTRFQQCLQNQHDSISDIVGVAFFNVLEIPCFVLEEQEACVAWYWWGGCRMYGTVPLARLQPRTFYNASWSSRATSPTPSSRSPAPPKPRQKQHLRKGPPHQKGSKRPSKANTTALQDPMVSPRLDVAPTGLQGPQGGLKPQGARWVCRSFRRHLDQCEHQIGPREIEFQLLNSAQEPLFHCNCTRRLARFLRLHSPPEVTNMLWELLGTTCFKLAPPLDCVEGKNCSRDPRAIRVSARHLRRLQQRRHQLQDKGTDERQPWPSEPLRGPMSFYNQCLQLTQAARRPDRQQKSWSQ

The experiment concerns the target Group 3 secretory phospholipase A2 (Homo sapiens) (UniProt Q9NZ20). The experiment can be described thus: human group III sPLA2 inhibitors, dose response, biochemical, QFRET, IC50 (AID 743457). As to conditions: recombinant hGIII-sPLA2, BODIPY PC-A2 QFRET fluorescence.
Usually IC50 stands for the midpoint of a concentration-inhibition curve. `CC(C)(C)c1csc(NNC(=O)c2ccc(Br)cc2)n1`: the IC50 was > 122 µM (inactive).

With `O=C1c2ccccc2C(=O)c2c(NCCCN(CCO)CCO)cccc21`, the IC50 was > 122 µM (inactive).

`O=C(CCN1C(=O)/C(=C/c2ccccc2Cl)SC1=S)NNC(=O)c1ccccc1O`: the IC50 result was “inactive”.

`Cc1ccc2sc(NNC(=O)c3ccc4c(c3)OCCO4)nc2c1C`: the IC50 entry is “inactive”.

With `COc1ccc(C(=O)NNC(=S)NC(=O)c2cccs2)cc1`, the IC50 result is “inactive”.

For the compound `C=CCS/C(N)=N\N=C\c1cc(Br)cc([N+](=O)[O-])c1O`, the IC50 is > 40.6 µM (inactive).

With `C/C(=N\NC(=O)c1nnn(-c2nonc2N)c1CN(C)c1ccccc1)c1ccccc1O`, the IC50 entry is “inactive”.

`COc1ccc2nc(Nc3nc4cc5c(cc4s3)OCO5)sc2c1`: the IC50 result was “inactive”.

`CCCC[n+]1c2ccccc2cc2ccccc21`: the IC50 entry is “inactive”.

Turning to `CC(C)CC(=O)NC(=S)NNC(=O)c1ccc(NC(=O)C2CCCCC2)cc1`, the IC50 was > 122 µM (inactive).

For the compound `COc1ccc(C(=O)NC(=S)NNC(=O)c2c(-c3ccccc3)noc2C)cc1OC`, the IC50 is > 122 µM (inactive).

As for `CNC(=S)N/N=C/c1cc(Br)cc(Br)c1O`, the IC50 was > 122 µM (inactive).

As for `C/C(=N\NC(=S)NCC(C)(C)C)c1cc(F)cc(F)c1O`, the IC50 was > 122 µM (inactive).

In the case of `O=[N+]([O-])c1ccc(O)c(N=Cc2sc3ccccc3c2O)c1`, the IC50 is > 122 µM (inactive).

`CNC(=S)NN=C(C)c1ccc(OC)cc1O`: the IC50 is > 122 µM (inactive).

Take `Cc1ccccc1C(=O)NNC(=S)NC(=O)c1cccs1`: the IC50 is > 40.6 µM (inactive).

Turning to `O=C(N/N=C/c1cc(Cl)cc([N+](=O)[O-])c1O)C(O)(c1ccccc1)c1ccccc1`, the IC50 entry is “inactive”.

`CCC(C)N1C(=O)/C(=C\c2cc3c4c(c2)CCCN4CCC3)C(=O)NC1=S` (stereo not drawn): the IC50 result was “inactive”.
